# PubChem BioAssay (NCI)
#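 At the GI50, growth is halved. The concentration for full growth arrest is given as TGI.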
# Assays:
# Test in all cases: NCI anticancer screen, dose series, 384-well format
# A498 renal = system: A498 renal
# A549 NSCLC = system: A549 NSCLC
# ACHN renal = system: ACHN renal
# BT-549 breast = system: BT-549 breast
# CAKI-1 renal = system: CAKI-1 renal
# COLO 205 colon = system: COLO 205 colon
# DU-145 prostate = system: DU-145 prostate
# EKVX NSCLC = system: EKVX NSCLC
# HCC-2998 colon = system: HCC-2998 colon
# HCT-116 colon = system: HCT-116 colon
# HCT-15 colon = system: HCT-15 colon
# HL-60(TB) leukemia = system: HL-60(TB) leukemia
# HOP-62 NSCLC = system: HOP-62 NSCLC
# HOP-92 NSCLC = system: HOP-92 NSCLC
# HS 578T breast = system: HS 578T breast
# HT29 colon = system: HT29 colon
# IGROV1 ovarian = system: IGROV1 ovarian
# KM12 colon = system: KM12 colon
# LOX IMVI melanoma = system: LOX IMVI melanoma
# M14 melanoma = system: M14 melanoma
# MALME-3M melanoma = system: MALME-3M melanoma
# MCF7 breast = system: MCF7 breast
# MDA-MB-231 breast = system: MDA-MB-231 breast
# MDA-MB-435 melanoma = system: MDA-MB-435 melanoma
# MDA-MB-468 breast = system: MDA-MB-468 breast
# MOLT-4 leukemia = system: MOLT-4 leukemia
# NCI-H226 lung = system: NCI-H226 lung
# NCI-H23 lung = system: NCI-H23 lung
# NCI-H322M lung = system: NCI-H322M lung
# NCI-H460 NSCLC = system: NCI-H460 NSCLC
# NCI-H522 lung = system: NCI-H522 lung
# NCI/ADR-RES ovarian = system: NCI/ADR-RES ovarian
# OVCAR-3 ovarian = system: OVCAR-3 ovarian
# OVCAR-4 ovarian = system: OVCAR-4 ovarian
# OVCAR-5 ovarian = system: OVCAR-5 ovarian
# OVCAR-8 ovarian = system: OVCAR-8 ovarian
# PC-3 prostate = system: PC-3 prostate
# RPMI-8226 leukemia = system: RPMI-8226 leukemia
# RXF 393 renal = system: RXF 393 renal
# SF-268 CNS = system: SF-268 CNS
# SF-295 CNS = system: SF-295 CNS
# SF-539 CNS = system: SF-539 CNS
# SK-MEL-28 melanoma = system: SK-MEL-28 melanoma
# SK-MEL-5 melanoma = system: SK-MEL-5 melanoma
# SK-OV-3 ovarian = system: SK-OV-3 ovarian
# SN12C renal = system: SN12C renal
# SNB-19 CNS = system: SNB-19 CNS
# SNB-75 CNS = system: SNB-75 CNS
# SR leukemia = system: SR leukemia
# T-47D breast = system: T-47D breast
# TK-10 renal = system: TK-10 renal
# U251 glioblastoma = system: U251 glioblastoma
# UACC-257 melanoma = system: UACC-257 melanoma
# UACC-62 melanoma = system: UACC-62 melanoma
smiles,measurement,setting,value
CC(C)(C)Cn1c(N)nc2ccc(-c3[nH]c(C(C)(C)C)nc3-c3ccc(F)cc3)nc21,GI50,A498 renal,4.54 µM
same,TGI,A498 renal,18.6 µM
same,GI50,A549 NSCLC,9.53 µM
same,TGI,A549 NSCLC,21.7 µM
same,GI50,ACHN renal,1.9 µM
same,TGI,ACHN renal,12.3 µM
same,GI50,BT-549 breast,12 µM
same,TGI,BT-549 breast,24.5 µM
same,GI50,CAKI-1 renal,6.13 µM
same,TGI,CAKI-1 renal,19.9 µM
same,GI50,COLO 205 colon,16 µM
same,TGI,COLO 205 colon,29.5 µM
same,GI50,DU-145 prostate,9.61 µM
same,TGI,DU-145 prostate,21.6 µM
same,GI50,EKVX NSCLC,2.74 µM
same,TGI,EKVX NSCLC,15.4 µM
same,GI50,HCC-2998 colon,3.6 µM
same,TGI,HCC-2998 colon,14.4 µM
same,GI50,HCT-116 colon,6.38 µM
same,TGI,HCT-116 colon,18.9 µM
same,GI50,HCT-15 colon,2.16 µM
same,TGI,HCT-15 colon,4.75 µM
same,GI50,HL-60(TB) leukemia,3.78 µM
same,TGI,HL-60(TB) leukemia,10.4 µM
same,GI50,HOP-62 NSCLC,11.4 µM
same,TGI,HOP-62 NSCLC,23.7 µM
same,GI50,HOP-92 NSCLC,10.2 µM
same,TGI,HOP-92 NSCLC,22 µM
same,GI50,HS 578T breast,11.4 µM
same,TGI,HS 578T breast,23.6 µM
same,GI50,HT29 colon,2.33 µM
same,TGI,HT29 colon,6.39 µM
same,GI50,IGROV1 ovarian,2.57 µM
same,TGI,IGROV1 ovarian,12.4 µM
same,GI50,KM12 colon,5.24 µM
same,TGI,KM12 colon,17.4 µM
same,GI50,LOX IMVI melanoma,13.5 µM
same,TGI,LOX IMVI melanoma,26.3 µM
same,GI50,M14 melanoma,12.9 µM
same,TGI,M14 melanoma,25.6 µM
same,GI50,MALME-3M melanoma,4.26 µM
same,TGI,MALME-3M melanoma,16.7 µM
same,GI50,MCF7 breast,6.64 µM
same,TGI,MCF7 breast,19.3 µM
same,GI50,MDA-MB-231 breast,11.7 µM
same,TGI,MDA-MB-231 breast,24.1 µM
same,GI50,MDA-MB-435 melanoma,13.4 µM
same,TGI,MDA-MB-435 melanoma,26.3 µM
same,GI50,MDA-MB-468 breast,2.93 µM
same,TGI,MDA-MB-468 breast,15.5 µM
same,GI50,MOLT-4 leukemia,7.35 µM
same,TGI,MOLT-4 leukemia,19.5 µM
same,GI50,NCI-H226 lung,13.1 µM
same,TGI,NCI-H226 lung,25.8 µM
same,GI50,NCI-H23 lung,11.5 µM
same,TGI,NCI-H23 lung,23.9 µM
same,GI50,NCI-H322M lung,4.97 µM
same,TGI,NCI-H322M lung,17.7 µM
same,GI50,NCI-H460 NSCLC,4.3 µM
same,TGI,NCI-H460 NSCLC,16.2 µM
same,GI50,NCI-H522 lung,5.97 µM
same,TGI,NCI-H522 lung,18.9 µM
same,GI50,NCI/ADR-RES ovarian,3.76 µM
same,TGI,NCI/ADR-RES ovarian,17.4 µM
same,GI50,OVCAR-3 ovarian,9.69 µM
same,TGI,OVCAR-3 ovarian,21.5 µM
same,GI50,OVCAR-4 ovarian,7.46 µM
same,TGI,OVCAR-4 ovarian,20.3 µM
same,GI50,OVCAR-5 ovarian,3.37 µM
same,TGI,OVCAR-5 ovarian,13 µM
same,GI50,OVCAR-8 ovarian,9.78 µM
same,TGI,OVCAR-8 ovarian,21.8 µM
same,GI50,PC-3 prostate,10.2 µM
same,TGI,PC-3 prostate,22.1 µM
same,GI50,RPMI-8226 leukemia,2 µM
same,TGI,RPMI-8226 leukemia,5.4 µM
same,GI50,RXF 393 renal,12.9 µM
same,TGI,RXF 393 renal,25.6 µM
same,GI50,SF-268 CNS,11.8 µM
same,TGI,SF-268 CNS,24.3 µM
same,GI50,SF-295 CNS,10.6 µM
same,TGI,SF-295 CNS,22.6 µM
same,GI50,SF-539 CNS,11.9 µM
same,TGI,SF-539 CNS,24.4 µM
same,GI50,SK-MEL-28 melanoma,12.6 µM
same,TGI,SK-MEL-28 melanoma,25.3 µM
same,GI50,SK-MEL-5 melanoma,3.7 µM
same,TGI,SK-MEL-5 melanoma,15.7 µM
same,GI50,SK-OV-3 ovarian,8.25 µM
same,TGI,SK-OV-3 ovarian,21 µM
same,GI50,SN12C renal,1.8 µM
same,TGI,SN12C renal,14.7 µM
same,GI50,SNB-19 CNS,11.9 µM
same,TGI,SNB-19 CNS,24.3 µM
same,GI50,SNB-75 CNS,13.5 µM
same,TGI,SNB-75 CNS,26.5 µM
same,GI50,SR leukemia,2.63 µM
same,TGI,SR leukemia,13.5 µM
same,GI50,T-47D breast,9.88 µM
same,TGI,T-47D breast,21.6 µM
same,GI50,TK-10 renal,3.02 µM
same,TGI,TK-10 renal,14.6 µM
same,GI50,U251 glioblastoma,6.13 µM
same,TGI,U251 glioblastoma,18.6 µM
same,GI50,UACC-257 melanoma,2.92 µM
same,TGI,UACC-257 melanoma,7.71 µM
same,GI50,UACC-62 melanoma,10.7 µM
same,TGI,UACC-62 melanoma,22.7 µM
